Results from patent US12384751B2, “Allosteric activators of the ALPHA1A-adrenergic receptor” (The Cleveland Clinic Foundation, priority 2019, dated 2025).

Legend:
[1] = system: 3×TG Alzheimer's Disease (AD) mouse model; experiment: Shortened Barnes Maze in 3×TG AD mice; assay type: in vivo
Method: (§1) AD mice were first randomized and sorted into control or treatment groups. […] 14 AD mice from each treatment group received Compound 3 in the drinking water (2.611 mg/kg/bw) to deliver a daily dose near the peak potentiation of the cAMP response in the brain at 10^−8M based upon the PAM assay and pharmacokinetics. This was achieved by adding Compound 3 to the drinking water at 32 uM, assuming the mice drink 6 ml/day, with only 10% of bioavailable drug reaching the brain. The drug was administered in the drinking water for 10 months, starting at age 2 months, then subjected to either different cognitive behavioral tests or electrophysiology at age 12 months to maximize the manifestations of AD symptoms in these mice. Mice are maintained on the drug for the duration of the studies and blinded to the operator.
Barnes Maze. The Barnes maze is used to assess spatial learning and memory and consists of a white, flat, circular platform elevated above ground with 40 holes, under which one escape box is located. Three visual cues are placed surrounding the maze and their locations in relation to the escape box and remain constant. Two floodlights and four fans above the maze provide aversion. […] At the start of each trial, a mouse is placed in the center of the maze under a holding chamber for 30 seconds. When the chamber is lifted, the mouse is allowed up to 300 seconds to enter the escape box. […] […] The procedure for the memory trials is the same as learning, except the mice are allowed only one attempt to solve the maze each day. Data includes the time to solve, number of errors made, and distance traveled. Errors are defined as when a mouse poked more than three-quarters of its head into any hole other than the appropriate escape hole. Distance traveled is measured using ANY-MAZE software.

Pharmacokinetics in mice = assay type: in vivo, mouse; details: as determined by PK
Method: Pharmacokinetics: Mice are dosed for each identified candidate compound via oral gavage and accessed for a three-arm PK study in C57BL/6 mice at 0, 15 min, 30 min, 1 hr, 3 hr, 6 hr, 12 hr, 24 hr, and 48 hrs. Three groups of […] (N=3 per time point) are administered a PO dose of the identified compound of interest and following completion of the PK study, terminal blood plasma samples and brain tissue samples are collected at the time points to determine in vivo BBB penetrance. Parameters tested can include absorption, bioavailability, volume distribution, metabolism, Cmax, tmax, concentration, elimination rate and half-life, and clearance.

α1D-AR = target: T1, α1D-AR (Homo sapiens, UniProt P25100); experiment: cAMP assay at α1D-AR; assay type: cell-based
T1 construct: expressed in transfected cells; host or cells: Rat-1 fibroblast cells
T1 sequence (P25100 1-572): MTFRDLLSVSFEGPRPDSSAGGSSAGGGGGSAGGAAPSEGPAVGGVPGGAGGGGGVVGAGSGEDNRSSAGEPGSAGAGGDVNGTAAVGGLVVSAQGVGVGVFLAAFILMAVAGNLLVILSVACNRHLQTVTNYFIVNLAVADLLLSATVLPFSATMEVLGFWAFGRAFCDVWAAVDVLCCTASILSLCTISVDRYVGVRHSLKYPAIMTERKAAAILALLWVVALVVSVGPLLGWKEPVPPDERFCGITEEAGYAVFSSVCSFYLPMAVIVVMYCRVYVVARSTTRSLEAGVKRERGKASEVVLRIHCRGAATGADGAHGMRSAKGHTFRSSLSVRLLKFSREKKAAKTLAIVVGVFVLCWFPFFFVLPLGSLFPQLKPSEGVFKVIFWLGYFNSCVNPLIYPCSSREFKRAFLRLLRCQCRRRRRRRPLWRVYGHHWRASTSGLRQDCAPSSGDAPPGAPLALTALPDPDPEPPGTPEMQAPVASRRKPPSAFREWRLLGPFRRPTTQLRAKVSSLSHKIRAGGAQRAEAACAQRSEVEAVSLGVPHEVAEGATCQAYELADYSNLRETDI
Method: (§2) cAMP assay: Cells expressing a single α1-adrenergic receptor subtype are washed and re-plated into 24-well plates in DMEM media without serum at approximately 2.4×10^4 cells/well. Cells are allowed to rest till the next day in a CO2 incubator at 37° C. The cells are washed twice with DMEM (no serum), then 1 ml of DMEM is added to each well. Cells are pre-incubated for 45 mins-1 hour at 37° C. in a CO2 incubator with 10 uM propranolol, followed by 100 uM IBMX for 30 minutes. Final DMSO concentration is at 0.05%. Norepinephrine or epinephrine is added in a dose response (1 dose per well) in addition to one of the Compounds 1-10 at one concentration (i.e. 10^−5M). Cells are incubated for another 30 mins at 37° C. in a CO2 incubator. The reaction is concluded by aspirating the media and adding 0.1M HCL. The mixture is incubated for 20 mins at room temperature. The cells are scraped and suspended until homogenous. The mixture is centrifuged at 1000 g for 10 mins and the supernatant assayed the same day according to a manufacturer's cAMP kit (Cayman Select Cyclic AMP EIA kit #501040).

[2] = system: 3×TG Alzheimer's Disease (AD) mouse model; experiment: Tone-induced fear conditioning in 3×TG AD mice; assay type: in vivo
Method: as §1

α1A-AR = target: T2, α1A-AR (Homo sapiens, UniProt P35348); experiment: Rapid cAMP screening assay for PAM effects (norepinephrine constant at Emax); assay type: cell-based, human and mouse; details: norepinephrine constant at 10^−4M; range over cell lines (fibroblasts, neuroblastoma, cardiomyocytes)
T2 sequence (P35348 1-466): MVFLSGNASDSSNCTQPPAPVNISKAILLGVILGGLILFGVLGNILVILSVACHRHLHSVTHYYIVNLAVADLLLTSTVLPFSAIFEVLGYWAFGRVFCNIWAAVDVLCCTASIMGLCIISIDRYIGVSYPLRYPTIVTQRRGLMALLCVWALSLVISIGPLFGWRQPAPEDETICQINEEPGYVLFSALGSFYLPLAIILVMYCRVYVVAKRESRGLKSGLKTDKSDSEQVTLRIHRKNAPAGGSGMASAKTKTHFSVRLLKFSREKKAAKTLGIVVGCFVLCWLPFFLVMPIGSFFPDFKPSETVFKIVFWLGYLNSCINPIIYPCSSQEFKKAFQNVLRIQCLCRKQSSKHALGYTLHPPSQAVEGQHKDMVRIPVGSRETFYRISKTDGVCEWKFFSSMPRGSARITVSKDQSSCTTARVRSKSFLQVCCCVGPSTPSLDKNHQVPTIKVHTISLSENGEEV
Method: as §2
In this assay, the concentration of norepinephrine is held constant at its Emax (10^−4M) (FIG. 10, red line). Compound 3 is then added in a dose-response (FIG. 10, blue line). Any signal above the red line is potentiation. […]

CC(C)Cc1c(OCC2=NCCN2)cccc1N(C)S(C)(=O)=O [Compound 3, N-[3-(4,5-Dihydro-1H-imidazol-2-ylmethoxy)-2-isobutyl-phenyl]-N-methyl-methanesulfonamide]
time to find the escape hole, day 5 memory test ([1]; AD mice, approached significance): decreased the time to find the escape hole | finding the correct escape hole (number of head pokes) ([1]; female AD mice, day 5 probe): increase the ability of female AD mice to find the correct escape hole | latency to the escape hole during training period ([1]; male AD mice, 5 day training): significantly decrease the latency | CMax time point (Pharmacokinetics in mice): approx. 3 hr | effect on norepinephrine cAMP response at the α1D-AR (α1D-AR): no effect | velocity after tone (freezing) ([2]; female AD mice): slower movement speed | active time after tone (freezing) ([2]; male AD mice): less active time | Emax of PAM potentiation (α1A-AR): 35-60 % of the norepinephrine's maximum response
